Test results reported in patent US20240299435A1, “COMPOSITIONS CONTAINING ADENOSINE TRIPHOSPHATE (ATP) AND METHODS OF USE FOR COGNITIVE FUNCTION” (priority 2021, published 2024).

Key:
[1] = Dynavision D2 Mode A (proactive) visuomotor reaction time task before and after a 3-minute all-out cycling test (3 MT); type: in vivo, human; settings: at 60 P; p=0.028
Experimental: (§1) This study followed a double-blind, randomized cross-over design. Participants were randomized to either PeakATP or Placebo and consumed their assigned supplement for a period of 14-days. Following supplementation, participants reported back to the lab within 24-hours for the first of two experimental trials, which occurred in a randomized, counterbalanced cross-over fashion. During experimental trial 1 (T1), participants ingested an acute dose of their assigned supplement 30 minutes before completing pre-testing assessments (Dynavision D2) followed by a 3-minute all-out high-intensity effort (3 MT) on a cycle ergometer. […]
(§2) A convenience sample of healthy, recreationally active individuals were recruited. […] To be included in this study, participants were required to be healthy and ready for activity as determined by physical activity readiness questionnaire (Par-Q+) and Medical History questionnaire (MHQ), be classified as recreationally active (≥150 minutes exercise per week) and not be taking and be willing to abstain from creatine or beta-alanine supplementation or be willing to complete a 4-week wash-out period prior to enrolling if taking creatine or beta-alanine and be willing to abstain from supplementing with either for the duration of the study. […]
(§3) Reaction time was assessed using the Dynavision D2 visuomotor training device. […]

[2] = Dynavision D2 Mode B (reactive) visuomotor reaction time task with cognitive stressor before and after a 3-minute all-out cycling test (3 MT); type: in vivo, human
Experimental: as §1, §2, §3

[3] = 225 mg per day enteric-coated ATP for 15 days; cited from earlier work
[4] = 400 mg per day ATP for 15 days; cited from earlier work

In the case of `Nc1ncnc2c1ncn2[C@@H]1O[C@H](COP(=O)(O)OP(=O)(O)OP(=O)(O)O)[C@@H](O)[C@H]1O` [ATP, adenosine-5′-triphosphate], the “Mode A number of hits compared to placebo” value [1] was “significantly greater”, the “Mode B avgRT compared to PRE” value ([2]; at IP (p=0.015) and 60 P (p=0.001)) was “significantly faster” and the “Mode B avgRT compared to placebo” value ([2]; at any time point, p's>0.05) was “not significantly different”. The “total bench press lifting volume and within-group set-one repetitions to failure” value [3] was “increased” and the “minimum peak torque in set two of a knee extensor bout” value [4] was “increased”.
